Measured values reported in US7256178B2, “Physiologically active substances” (priority 2002, dated 2007).

Columns and labels:
[1] = Stability in an aqueous solution (HPLC); assay type: physicochemical; details: pH 7 Britton-Robinson buffer solution, 25° C., 24 hours
Description: The compound of the formula (I) was dissolved in DMSO at a concentration of 10 to 20 mM, and the solution was diluted with a pH 7 Britton-Robinson buffer solution to about 500-fold. This solution was used as a sample solution, and was incubated at 25° C. for 24 hours.
The sample solution before and after the incubation was analyzed using high-performance liquid chromatography to obtain a chromatogram. The percentage of the compound remaining in the sample solution after the incubation was determined from the peak area of the chromatogram.

VEGF promoter = assay: VEGF transcription inhibitory activity (VEGF-PLAP reporter, U251/1-8 cells under hypoxic conditions); assay type: cell-based; details: Homo sapiens, U-251, hypoxic (2% O2) incubator 18 hours, n=2 to 3
Excerpt: In order to prepare a reporter system in which transcription from a VEGF promoter is reflected, a VEGF promoter sequence was cloned and inserted into a placental alkaline phosphatase (PLAP) vector to construct a reporter vector.
In order to obtain a promoter region of human VEGF, a VEGF genome was cloned from a phage library. Based on VEGF cDNA (GenBank accession number: X62568), a PCR primer in the sequence described as SEQ ID NO: 1 or SEQ ID NO: 2 was designed to conduct PCR, thereby obtaining about a fragment of 340 bp. A human genomic phage library (human genomic library, Clontech) was screened using this fragment as a probe to obtain pUC18-VEGFA containing a VEGF5′ franking region of about 5.4 kb. This pUC18-VEGFA was cut with Kpn I/Nhe I to obtain a VEGF promoter region of about 2.3 kb, and the region was inserted into the multicloning site Kpn I/Nhe I of the placental alkaline phosphatase (PLAP) reporter vector (Goto et al., Mol. Pharmacol., 49, 860-873, 1996) to construct a VEGF-PLAP vector.
The above-described VEGF-PLAP vector was introduced into U251 cells cultured in a Dulbecco's modified Eagle's medium containing 10% fetal bovine serum (DMEM, manufactured by Sigma Co.), and cultured in the presence of 1 mg/mL G418 (Merck & Co., Inc.) to establish a G418-resistant stable clone (U251/1-8 cells).
As in a report by Minchenko et al. (Cell. Mol. Biol. Res., 40, 35-39, 1994), U251/1-8 cells were confirmed to be a reporter system which secretes PLAP into a culture medium under hypoxic conditions (2% O2 incubator), and in which transcription from a VEGF promoter is reflected. A compound inhibiting VEGF production induced by hypoxic stimulation was screened using this clone.
In order to eliminate influence of the alkali phosphatase in the serum, the U251/1-8 cells were washed with a sufficient amount of PBS (Phosphate buffered saline) twice, and treated at 65° C. for 20 minutes to inactivate the alkaline phosphatase in the serum. 4×10^4 cells/180 μL per well of the cells diluted in the DMEM culture medium containing 10% of this serum were plated in a 96-well plate.
The cells were cultured in a CO2 incubator (5% CO2) at 37° C. overnight, and 20 μL of the above-described culture solution containing the test compound at threefold serial dilutions was added. Subsequently, the cells were cultured in hypoxic (2% O2) incubator for 18 hours. To measure the PLAP activity in the culture supernatant liquid, 10 μL of the culture supernatant liquid was added to 50 μL of a 0.28 M Na2CO3—NaHCO3 buffer solution (pH 10.0, 8.0 mM MgSO4), and finally 50 μL of an alkaline phosphatase substrate (Lumistain, Genome Science Laboratories Co., Ltd.) was added thereto. After the reaction for one hour, chemiluminescence was detected using a microplate reader (PerkinElmer) to measure the PLAP activity as the alkaline phosphatase activity. The PLAP activity under normoxic conditions was defined as 0%, the PLAP activity of the cells when treated under hypoxic conditions was defined as 100%, and the concentration for inhibiting 50% of the PLAP activity was defined as the IC50 value of PLAP. The IC50 values of the 6-deoxy 11107D derivatives shown in examples were determined (n=2 to 3).

[2] = tested on: WiDr human colon cancer cells; assay: Action of inhibiting proliferation of WiDr human colon cancer cells (MTT); assay type: cell-based; details: 72 h, three days, n=2 to 3, read-out: WiDr human colon cancer cell proliferation inhibitory activity (IC50: nM)
Description: 2×10^3 cells/well of WiDr human colon cancer cells cultured in a Dulbecco's modified Eagle's medium containing 10% fetal bovine serum, penicillin (100 units/mL) and streptomycin (100 μg/mL) (DMEM, manufactured by Sigma Co.) were plated in a 96-well plate. The cells were cultured in a CO2 incubator overnight, and 20 μL of the above-described culture solution containing the test compound at threefold serial dilutions was added for culturing the cells. After three days, 50 μL of a 3.3 mg/mL MTT solution was added, and the cells were further cultured for one hour. Then, formazan generated by reduction using living cells was extracted with 100 μL of DMSO to measure the absorbance (A540/A660), which was used as an index of the number of living cells.
The concentration for inhibiting 50% of proliferation of WiDr human colon cancer cells (IC50 value) of the compound of the formula (I) was determined (n=2 to 3).

[3] = Physicochemical properties: solubility
[4] = Body weight reduction (acute toxicity) in the WiDr nude mouse test; assay type: in vivo; details: nude mice, day when body weights were lightest, relative to day of start of administration
Description: (§1) In order to examine the solid cancer growth inhibitory activity of the compound of the formula (I) in vivo, WiDr human colon cancer cells were subcutaneously implanted into the body of each nude mouse. […] The control group consisted of ten mice, and the 6-deoxy 11107D derivative-administration group consisted of five mice. The derivative was intravenously injected at 0.625 mg/kg/day, 1.25 mg/kg/day, 2.5 mg/kg/day, 5 mg/kg/day, or 10 mg/kg/day to each mouse of the administration group, and a vehicle was administered to each mouse of the control group.
(§2) The tumor volumes on the 15th day were measured to determine the relative tumor weight ratio (T/C %), based on the tumor weight of each mouse of the control group as 100%. The body weights on the day of the start of administration, 5th day, 8th day, 12th day and 15th (or 16th) day were measured to examine the relative body weight variations in the case of administering the representative compounds, based on the body weights on the day of the start of administration as 100%. The minimum relative body weight ratios, which are the relative body weight ratios on the day when the body weights were lightest, are shown in Table 3.

WiDr human colon tumors = assay: Solid cancer growth inhibitory action, WiDr cells subcutaneously implanted in nude mice; assay type: in vivo, nude mouse; details: 15th day, control group as 100%
Description: as §1, §2

CCC(O)C(C)C1OC1CC(C)(O)/C=C/C=C(\C)C1OC(=O)CC(O)CCC(C)C(OC(=O)N2CCC(N3CCCCC3)CC2)/C=C/C1C (stereo not shown) [Compound 21, (8E,12E,14E)-3,16,21-trihydroxy-6,10,12,16,20-pentamethyl-7-((4-(piperidin-1-yl)piperidin-1-yl)carbonyl)oxy-18,19-epoxytricosa-8,12,14-trien-11-olide]
Remaining percentage (%) [1]: 94.8% | IC50 (VEGF promoter): 2 nM | IC50 [2]: 0.6 nM

CCC(O)C(C)C1OC1CC(C)/C=C/C=C(\C)C1OC(=O)CC(O)CCC(C)C(OC(C)=O)/C=C/C1C (stereo not shown) [6-deoxy 11107B]
Solubility in organic solvents ([3]; dimethyl sulfoxide, pyridine, methanol, acetone): soluble in dimethyl sulfoxide, pyridine, methanol, and acetone | Solubility in water ([3]; water): poorly soluble in water

CCC(O)C(C)C1OC1CC(C)(O)/C=C/C=C(\C)C1OC(=O)CC(O)CCC(C)C(OC(=O)N(C)CCN(CC)CC)/C=C/C1C (stereo not shown) [Compound 20, (8E,12E,14E)-7-(N-(2-(N′,N′-diethylamino)ethyl-N-methyl)carbamoyloxy)-3,16,21-trihydroxy-6,10,12,16,20-pentamethyl-18,19-epoxytricosa-8,12,14-trien-11-olide]
Remaining percentage (%) [1]: 95.6% | IC50 (VEGF promoter): 1.1 nM | IC50 [2]: 0.2 nM

CCC(O)C(C)C1OC1CC(C)(O)/C=C/C=C(\C)C1OC(=O)CC(O)CCC(C)C(OC(=O)N2CCN(CC(C)(C)C)CC2)/C=C/C1C (stereo not shown) [Compound 23, (8E,12E,14E)-7-((4-(2,2-dimethylpropyl)piperazin-1-yl)carbonyl)oxy-3,16,21-trihydroxy-6,10,12,16,20-pentamethyl-18,19-epoxytricosa-8,12,14-trien-11-olide]
IC50 (VEGF promoter): 14.7 nM | IC50 [2]: 3.8 nM

CCC(O)C(C)C1OC1CC(C)(O)/C=C/C=C(\C)C1OC(=O)CC(O)CCC(C)C(OC(=O)N2CCN(C)CC2)/C=C/C1C (stereo not shown) [Compound 18, (8E,12E,14E)-3,16,21-trihydroxy-6,10,12,16,20-pentamethyl-7-((4-methylpiperazin-1-yl)carbonyl)oxy-18,19-epoxytricosa-8,12,14-trien-11-olide]
Remaining percentage (%) [1]: 95.0% | IC50 (VEGF promoter): 1 nM | IC50 [2]: 0.5 nM

CCC(O)C(C)C1OC1CC(C)(O)/C=C/C=C(\C)C1OC(=O)CC(O)CCC(C)C(OC(=O)N2C[C@@H]3C[C@H]2CN3C)/C=C/C1C (stereo partly drawn) [Compound 55, (8E,12E,14E)-3,16,21-trihydroxy-6,10,12,16,20-pentamethyl-7-(((1S,4S)-5-methyl-2,5-diazabicyclo[2.2.1]heptan-2-yl)carbonyl)oxy-18,19-epoxytricosa-8,12,14-trien-11-olide]
Remaining percentage (%) [1]: 95.7% | Minimum relative body weight ratio ([4]; 0.625 mg/kg/day intravenously): 0.80 | WiDr human colon tumor growth inhibitory activity T/C(%) (WiDr human colon tumors; 0.625 mg/kg/day intravenously): 11% | IC50 (VEGF promoter): 1.1 nM | IC50 [2]: 0.6 nM

CCC(O)C(C)C1OC1CC(C)(O)/C=C/C=C(\C)C1OC(=O)CC(O)CCC(C)C(OC(=O)N2CCN(C(C)C)CC2)/C=C/C1C (stereo not shown) [Compound 44, (8E,12E,14E)-3,16,21-trihydroxy-7-((4-isopropylpiperazin-1-yl)carbonyl)oxy-6,10,12,16,20-pentamethyl-18,19-epoxytricosa-8,12,14.-trien-11-olide]
Remaining percentage (%) [1]: 95.4% | IC50 (VEGF promoter): 2.4 nM | IC50 [2]: 0.6 nM

CCC(O)C(C)C1OC1CC(C)(O)/C=C/C=C(\C)C1OC(=O)CC(O)CCC(C)C(OC(=O)N2CCCN(C(C)C)CC2)/C=C/C1C (stereo not shown) [Compound 39, (8E,12E,14E)-3,16,21-trihydroxy-7-((4-isopropylhomopiperazin-1-yl)carbonyl)oxy-6,10,12,16,20-pentamethyl-18,19-epoxytricosa-8,12,14-trien-11-olide]
Remaining percentage (%) [1]: 95.9% | IC50 (VEGF promoter): 1.3 nM | IC50 [2]: 0.5 nM

CCC(O)C(C)C1OC1CC(C)(O)/C=C/C=C(\C)C1OC(=O)CC(O)CCC(C)C(OC(=O)N2CCCN(CC)CC2)/C=C/C1C (stereo not shown) [Compound 43, (8E,12E,14E)-7-((4-ethylhomopiperazin-1-yl)carbonyl)oxy-3,16,21-trihydroxy-6,10,12,16,20-pentamethyl-18,19-epoxytricosa-8,12,14-trien-11-olide]
Remaining percentage (%) [1]: 95.8% | Minimum relative body weight ratio ([4]; 1.25 mg/kg/day intravenously): 0.83 | WiDr human colon tumor growth inhibitory activity T/C(%) (WiDr human colon tumors; 1.25 mg/kg/day intravenously): 9% | IC50 (VEGF promoter): 2.3 nM | IC50 [2]: 0.5 nM

CCC(O)C(C)C1OC1CC(C)(O)/C=C/C=C(\C)C1OC(=O)CC(O)CCC(C)C(OC(=O)NCCN(CC)CC)/C=C/C1C (stereo not shown) [Compound 22, (8E,12E,14E)-7-(N-(2-(N′,N′-diethylamino)ethyl)carbamoyloxy)-3,16,21-trihydroxy-6,10,12,16,20-pentamethyl-18,19-epoxytricosa-8,12,14-trien-11-olide]
Remaining percentage (%) [1]: 95.4% | IC50 (VEGF promoter): 2.5 nM | IC50 [2]: 1.1 nM

CCC(O)C(C)C1OC1CC(C)(O)/C=C/C=C(\C)C1OC(=O)CC(O)CCC(C)C(OC(=O)N2CCCN(C)CC2)/C=C/C1C (stereo not shown) [Compound 19, (8E,12E,14E)-3,16,21-trihydroxy-6,10,12,16,20-pentamethyl-7-((4-methylhomopiperazin-1-yl)carbonyl)oxy-18,19-epoxytricosa-8,12,14-trien-11-olide]
Remaining percentage (%) [1]: 95.5% | IC50 (VEGF promoter): 1.1 nM | IC50 [2]: 0.3 nM

CCC(O)C(C)C1OC1CC(C)(O)/C=C/C=C(\C)C1OC(=O)CC(O)CCC(C)C(OC(=O)N(C)C2CCN(C)CC2)/C=C/C1C (stereo not shown) [Compound 29, (8E,12E,14E)-3,16,21-trihydroxy-6,10,12,16,20-pentamethyl-7-(N-methyl-N-(1-methylpiperidin-4-yl)carbamoyloxy)-18,19-epoxytricosa-8,12,14-trien-11-olide]
IC50 (VEGF promoter): 1.3 nM | IC50 [2]: 0.3 nM
